This is an account of results in US20160298129A1, “ALS INHIBITOR HERBICIDE TOLERANT MUTANT PLANTS” (BAYER CROPSCIENCE NV, priority 2013, published 2016).

The target in test [1] is AHAS P197S (Arabidopsis thaliana, UniProt P17597, E575Q/P197S). Format: biochemical. The method, then:
(§1) Bacteria are grown at 37° C. in LB-medium containing 100 mg/l carbenicillin and 25 mg/l canamycin, induced with 1 mM isopropyl-β-D-thiogalactopyranoside at an OD600 of 0.6, cultivated for 16 hours at 18° C. and harvested by, e.g., centrifugation. Bacterial pellets are resuspended in 100 mM sodium phosphate buffer pH 7.0 containing 0.1 mM thiamine-pyrophosphate, 1 mM MgCl2, and 1 μM FAD at a concentration of 1 gram wet weight per 25 ml of buffer and disrupted by, e.g., sonification. The crude protein extract obtained after centrifugation is used for ALS activity measurements.
(§2) ALS protein can be extracted from leaves or tissue cultures, such as B. napus or B. juncea leaves, or B. napus or B. juncea tissue cultures as described by Ray (Plant Physiol, 1984, 75:827-831). An ALS assays can be carried out in 96-well microtiter plates using a modification of the procedure described by Ray (1984): The reaction mixture contains 20 mM potassium phosphate buffer pH 7.0, 20 mM sodium pyruvate, 0.45 mM thiamine-pyrophosphate, 0.45 mM MgCl2, 9 μM FAD. ALS enzyme and various concentrations of ALS inhibitors can be mixed in a final volume of 90 μl Assays can be initiated by adding enzyme and the assays can be terminated after 75 min incubation at 30° C. by the addition of 40 μl 0.5 M H2SO4.

The target of test [2] is AHAS W574L (Arabidopsis thaliana, UniProt P17597, E575Q/W574L). Format: biochemical. The method, then: as §1, §2
Test [3] has as its target AHAS WT (Arabidopsis thaliana, UniProt P17597, E575Q). The test can be described thus: biochemical. To be noted: AHAS WT. The method, then:
as §1, §2

For test [4], the target named is AHAS P197S-D376E (Arabidopsis thaliana, UniProt P17597, D376E/E575Q/P197S). The test can be described thus: biochemical. To be noted: for Resistance Factor / pI50: AHAS P197S-D376E. As to the method: as §1, §2
The target of test [5] is AHAS D376E-W574L (Arabidopsis thaliana, UniProt P17597, D376E/E575Q/W574L). The test can be described thus: biochemical. To be noted: for Resistance Factor / pI50: AHAS D376E-W574L. As to the method:
as §1, §2

Test [6] deals with AHAS P197S-W574L (Arabidopsis thaliana, UniProt P17597, E575Q/P197S/W574L). The test can be described thus: biochemical. To be noted: for Resistance Factor / pI50: AHAS P197S-W574L. As to the method:
as §1, §2

Test [7] concerns the target AHAS P197S-D376E-W574L (Arabidopsis thaliana, UniProt P17597, D376E/E575Q/P197S/W574L). The test can be described thus: biochemical. The note with it: for Resistance Factor / pI50: AHAS P197S-D376E-W574L. As to the method: as §1, §2
Test [8] has as its target AHAS D376E (Arabidopsis thaliana, UniProt P17597, D376E/E575Q). Put plainly: biochemical. The note with it: for Resistance Factor / pI50: AHAS D376E. The method, then:
as §1, §2

For test [9], the system named is WT tissues (hypocotyl derived callus). Put plainly: Callus culture on Foramsulfuron selection medium. The note with it: 250 nM in M-338 [H76] medium. In kind it is cell-based, Brassica napus. The method, then: Five day old seedlings were used for the preparation of hypocotyl segments 7-10 mm in length. Hypocotyl segments were transferred to 14 cm Petri plates containing 75 ml of M-338 [H76] callus induction medium (25 explants/plate). M-338 [H76] medium is MS salts and vitamins (Murashige and Skoog, 1962), 20 g/l sucrose, 0.5 g/l MES, 0.5 g/l adenine sulphate, 5 mg/l silver nitrate, 0.5 mg/l 2,4-D, 0.2 mg/l kinetin and solidified with 5.5 g/l agarose (pH 5.7). Dishes were sealed and cultured at 24° C. with standard light conditions (16 h/day). After 3 weeks, calli developing at the ends of the explants were transferred to fresh M-338 [H76] plates (25 calli/plate). Calli were subcultured to fresh medium every 3 weeks (larger calli cut into two pieces).
Hypocotyl derived callus (9 weeks old) was used for the selection of herbicide resistant mutants. […] Dishes were cultured at 24° C. with standard light conditions (16 h/day). After 3 weeks, the calli were divided into 2 pieces each and replated on M-338 [H76] medium containing 1.0 μM Foramsulfuron. Further increases in Foramsulfuron concentration (e.g. 1.5 μM, 2.0 μM, 2.5 μM, 3.0 μM or higher) were made each subculture until rapidly growing green (resistant) calli could clearly be identified from the brown non-resistant tissues.

The target of test [10] is AHAS WT (Arabidopsis thaliana, UniProt P17597). The test can be described thus: biochemical. As to the method:
as §1, §2

In test [11] the test system is oilseed rape homozygous for HETO132 and HETO134 (132-134). Put plainly: Field herbicide tolerance, visible phytotoxicity (ALS I W574L, ALS III P197S-W574L). In kind it is in vivo, Brassica napus. To be noted: gai/ha: imazamox 40, bispyribac-sodium 50, propoxycarbazone-sodium 70, mesosulfuron-methyl 60, pyroxsulam 12.5 + cloquintocet-mexyl 37.5, each + rapeseed oil methylated 366.5. An excerpt: (§3) Seeds of spring oilseed rape homozygous for HETO139 and HETO134 were sown in a field according to typical practical agricultural methods together with seeds homozygous for HETO134 and HETO133 (comprising a W574L mutation on ALS III, which were obtained in the same way as HETO134), and with seeds homozygous for HETO134 and HETO132 (comprising a P197S and a W574L mutation on ALS III, which were obtained in essentially the same way as HETO139). Several ALS inhibitor herbicides were applied to the oilseed rape plants by using specific spray equipment for small plot applications.

Test [12] has as its system oilseed rape homozygous for HETO133 and HETO134 (133-134). Put plainly: Field herbicide tolerance, visible phytotoxicity (ALS I W574L, ALS III W574L). In kind it is in vivo, Brassica napus. To be noted: gai/ha: imazamox 40, bispyribac-sodium 50, propoxycarbazone-sodium 70, mesosulfuron-methyl 60, pyroxsulam 12.5 + cloquintocet-mexyl 37.5, each + rapeseed oil methylated 366.5.
Text: as §3

Test [13] concerns wild-type (WT) oilseed rape. Put plainly: Field herbicide tolerance, visible phytotoxicity. Format: in vivo, Brassica napus. To be noted: gai/ha: imazamox 40, bispyribac-sodium 50, propoxycarbazone-sodium 70, mesosulfuron-methyl 60, pyroxsulam 12.5 + cloquintocet-mexyl 37.5, each + rapeseed oil methylated 366.5.
In test [14] the test system is oilseed rape homozygous for HETO139 and HETO134 (139-134). The test can be described thus: Field herbicide tolerance, visible phytotoxicity (ALS I W574L, ALS III P197S-D376E). Format: in vivo, Brassica napus. The note with it: gai/ha: imazamox 40, bispyribac-sodium 50, propoxycarbazone-sodium 70, mesosulfuron-methyl 60, pyroxsulam 12.5 + cloquintocet-mexyl 37.5, each + rapeseed oil methylated 366.5.
Text: as §3

Sequence of AHAS P197S (P17597 56-670 P197S/E575Q): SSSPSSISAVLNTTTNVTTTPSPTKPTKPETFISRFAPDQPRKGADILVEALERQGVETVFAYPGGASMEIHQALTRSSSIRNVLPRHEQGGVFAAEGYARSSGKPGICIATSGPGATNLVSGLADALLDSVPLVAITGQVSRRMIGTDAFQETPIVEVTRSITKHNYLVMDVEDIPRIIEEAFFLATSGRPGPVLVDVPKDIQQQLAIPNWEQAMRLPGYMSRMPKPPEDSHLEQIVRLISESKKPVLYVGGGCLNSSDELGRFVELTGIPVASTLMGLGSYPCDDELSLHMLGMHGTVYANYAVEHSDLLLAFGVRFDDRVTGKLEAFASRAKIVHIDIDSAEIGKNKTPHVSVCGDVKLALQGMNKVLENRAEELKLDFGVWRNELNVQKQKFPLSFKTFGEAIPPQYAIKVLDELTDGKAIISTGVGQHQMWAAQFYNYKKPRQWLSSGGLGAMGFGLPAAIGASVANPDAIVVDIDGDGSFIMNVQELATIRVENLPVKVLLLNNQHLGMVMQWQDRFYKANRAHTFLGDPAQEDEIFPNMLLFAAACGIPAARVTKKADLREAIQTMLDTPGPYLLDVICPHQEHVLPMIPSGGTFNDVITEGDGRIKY
Sequence of AHAS W574L (P17597 56-670 W574L/E575Q): as the sequence (P17597 56-670 P197S/E575Q) above, with S142P, W519L counted along it
Sequence of AHAS P197S-W574L (P17597 56-670 P197S/W574L/E575Q): as the sequence (P17597 56-670 P197S/E575Q) above, with W519L counted along it
Sequence of AHAS P197S-D376E (P17597 56-670 P197S/D376E/E575Q): as the sequence (P17597 56-670 P197S/E575Q) above, with D321E counted along it
Sequence of AHAS D376E (P17597 56-670 D376E/E575Q): as the sequence (P17597 56-670 P197S/E575Q) above, with S142P, D321E counted along it
Sequence of AHAS D376E-W574L (P17597 56-670 D376E/W574L/E575Q): as the sequence (P17597 56-670 P197S/E575Q) above, with S142P, D321E, W519L counted along it
Sequence of AHAS P197S-D376E-W574L (P17597 56-670 P197S/D376E/W574L/E575Q): as the sequence (P17597 56-670 P197S/E575Q) above, with D321E, W519L counted along it
Sequence of AHAS WT (Arabidopsis thaliana, UniProt P17597, E575Q) (P17597 56-670 E575Q): as the sequence (P17597 56-670 P197S/E575Q) above, with S142P counted along it
Sequence of AHAS WT (Arabidopsis thaliana, UniProt P17597) (P17597 56-670 E575Q): as the sequence (P17597 56-670 P197S/E575Q) above, with S142P counted along it

Turning to `COc1ncc(F)c2nc(S(=O)(=O)Nc3c(F)cccc3F)nn12` [Florasulam, florasulam], the “Resistance Factor” value in [1] was 28; in test [2], 1738; in test [4], 2754; in test [5], greater than 6918; in [6] it was greater than 6918; in test [7], greater than 6918. The “Resistance Factor” value in test [8] is given as 55. Besides, the pI50 in test [1] is given as 6.4; in test [2] it was 4.6; in test [3] it was 7.8; in test [4], 4.4; in [5] it was less than 4; in test [6], less than 4. Moreover, the pI50 in [7] was less than 4; in [8] it was 6.1.
With `COc1cc(OC)nc(NC(=O)NS(=O)(=O)c2cc(NC=O)ccc2C(=O)N(C)C)n1` [Foramsulfuron, foramsulfuron], the “inhibition of callus tissues” value in test [9] is “clearly inhibitory”. Moreover, the “Resistance Factor” value is on record as 12 in test [1]; 5888 in test [2]; greater than 11748 in test [4]; greater than 11748 in test [5]; greater than 11748 in test [6]; greater than 11748 in test [7]. Moreover, in test [8], the “Resistance Factor” value is 3715. In addition, the IC50 in test [10] was 0.00794 µM; in [4], greater than 100 µM; in test [5], greater than 100 µM; in [6], greater than 100 µM; in test [7], greater than 100 µM; in [8], 31.6 µM.
On to `COc1cc(OC)n2nc(NS(=O)(=O)c3c(C(F)(F)F)ccnc3OC)nc2n1` [Pyroxsulam, pyroxsulam], for which the Percentage phytotoxicity in test [11] (9 DAA) came out at 13.3%; in [11] (16 DAA), 16%; in test [11] (24 DAA), 5%; in [12] (9 DAA), 13.3%; in [12] (16 DAA), 17%; in test [12] (24 DAA), 15%. The Percentage phytotoxicity stood at 76.7% in [13] (9 DAA); 98% in test [13] (16 DAA); 98% in test [13] (24 DAA); 10.7% in [14] (9 DAA); 16% in test [14] (16 DAA); 10.7% in test [14] (24 DAA). Besides, the “Resistance Factor” value in test [1] is recorded as 261; in test [2], greater than 41368; in test [4], greater than 41368; in test [5] it was greater than 41368; in test [6] it was greater than 41368; in test [7] it was greater than 41368. Moreover, the “Resistance Factor” value in test [8] came to 656. In addition, the pI50 in [1] is recorded as 6.2; in test [2], less than 4; in [3], 8.6; in test [4] it was less than 4; in test [5], less than 4; in test [6] it was less than 4. Besides, the pI50 is less than 4 in test [7] and 5.8 in test [8].
